Each structure is given as a SMILES string. Active and inactive are the calls of the source. The rule behind the calls is not given here.

The test system of one series is RKO. Put plainly: cells. To be noted: Homo sapiens, 48 h.
Another series deals with SW480. In words: cells. To be noted: Homo sapiens, SW480, 48 h.
Series [1] in a line: Antiproliferative activity against human Intestinal epithelial cell assessed as inhibition of cell growth incubated for 48 hrs by MTT assay. Type of series: toxicity, cell-based. To be noted: human intestinal epithelial cells. (In general: Tetrazolium dyes change colour on reduction, which living cells bring about.)
In series [2] the test system is HCT-116. In words: cells. To be noted: Homo sapiens, HCT-116, 48 h.
Description: Antiproliferative activity against human HCT-116 cells assessed as inhibition of cell growth incubated for 48 hrs by MTT assay
Series [3] concerns HCT-116. In words: Antitumor activity against human HCT-116 cells xenografted in BALB/c mouse assessed as tumor growth inhibition at 10 mg/kg,po administrated for 2 weeks relative to control. Type of series: functional. The conditions noted are these: HCT-116, 336 h, read-out: TGI.
Series [4] is described as follows: Toxicity in BALB/c mouse xenografted with human HCT-116 cells assessed as increase in serum AST level at 10 mg/kg,po administrated for 2 weeks. The class given is organism-based. The conditions noted are these: in vivo, 336 h. For orientation: A xenograft is tissue or cells of one species grown in another, often human tumour cells in immunodeficient mice.
Series [5] has as its system HCT-116. In words: Antitumor activity against human HCT-116 cells xenografted in BALB/c mouse assessed as chromatin condensation at 10 mg/kg,po administrated for 2 weeks by hematoxylin and eosin staining based analysis. The class given is functional, organism-based.
A short description of series [6]: Toxicity in BALB/c mouse xenografted with human HCT-116 cells assessed as histopathological change in kidney at 10 mg/kg,po administrated for 2 weeks by hematoxylin and eosin staining based analysis. The class given is organism-based. To be noted: in vivo, 336 h.
Series [7] deals with HCT-116. Put plainly: Antitumor activity against human HCT-116 cells xenografted in BALB/c mouse assessed as change in cell morphology at 10 mg/kg,po administrated for 2 weeks by hematoxylin and eosin staining based analysis. The class given is functional, organism-based.
The next series deals with BaF3. Put plainly: Antiproliferative activity against mouse BaF3 transfected with FGFR4 assessed as inhibition of cell growth incubated for 72 hrs by CCK-8 assay. To be noted: BaF3, 72 h. Type of series: toxicity, cell-based.

Description for RKO: Antiproliferative activity against human RKO cells assessed as inhibition of cell growth incubated for 48 hrs by MTT assay
Description for SW480: Antiproliferative activity against human SW480 cells assessed as inhibition of cell growth incubated for 48 hrs by MTT assay

For `COc1cc(OC)cc(-c2cc3cnc(Nc4c(C)cccc4N4CCOCC4)cc3n(CCCO)c2=O)c1`, the 50% inhibitory concentration (IC50) with RKO turned out to be 9.25 µM; with SW480, 22.8 µM; in the series with HCT-116 [2], 11.9 µM. Also, the IC50 at 48 h in [1] was found to be 19.5 µM.
In the case of `CNC(=O)c1c(C)oc2cc(Oc3ncnc4cc(OC)c(OC)cc34)ccc12` [FRUQUINTINIB], in the series on HCT-116 [3], the inhibition in vivo at 10 mg/kg turned out to be 63.7%. Besides, the Activity result in series [4] and in [6] was “Toxic” throughout. Further, the outcome in the series with HCT-116 [5] and in the series on HCT-116 [7] was Active.
For the compound `C=CC(=O)NCCCn1c(=O)c(-c2cc(OC)cc(OC)c2)cc2cnc(Nc3c(C)cccc3N3CCN(C)CC3)cc21`, the values for the IC50 in the series with RKO, in the series on SW480 and in the series on HCT-116 [2] were 11.5 µM, 12.7 µM and 10.8 µM, respectively. The IC50 at 48 h in series [1] was found to be 21.3 µM.
Consider `C=CC(=O)Nc1cccc(C)c1Nc1cc2c(cn1)cc(-c1c(Cl)c(OC)cc(OC)c1Cl)c(=O)n2CCCO`, for which the concentration for half-maximal inhibition (IC50) amounted to 9.32 µM in the series with RKO, 12.8 µM in the series with SW480 and 7.21 µM with HCT-116 [2]. Moreover, the concentration for half-maximal inhibition (IC50) at 48 h in [1] was 24 µM.
Regarding `C=CC(=O)Nc1cccc(C)c1Nc1ncc2cc(-c3c(Cl)c(OC)cc(OC)c3Cl)ccc2n1`, the IC50 in the series on RKO was 19.7 µM; in the series with SW480 it was 12.7 µM; in the series with HCT-116 [2], 8.89 µM; with BaF3, 5.12 nM. Besides, the half-inhibitory concentration (IC50) at 48 h in series [1] worked out at 18.4 µM.
For the compound `COc1cc(OC)c(Cl)c(-c2cc3cnc(Nc4c(C)cccc4N4CCCCC4)cc3n(CCCN3CCCCC3)c2=O)c1Cl`, the IC50 with RKO was 11.2 µM; with SW480, 10.3 µM; in the series on HCT-116 [2], 9.37 µM. For the same compound, the concentration for half-maximal inhibition (IC50) at 48 h in series [1] was determined as 25.1 µM.

By IC50 is commonly meant the point on the concentration scale where inhibition reaches its midpoint.
